Test results taken from PMC8468039, “Development of New Meridianin/Leucettine-Derived Hybrid Small Molecules as Nanomolar Multi-Kinase Inhibitors with Antitumor Activity” (Biomedicines, 2021).

Assays:
LYN = biological target: T1, LYN (Homo sapiens, UniProt P07948); assay: In vitro kinase inhibition assay (HotSpot, Reaction Biology); type: biochemical; settings: single dose of 10 µM; 10 µM ATP as printed; read-out: Percent Inhibition, LYN
T1 construct: purchased Reaction Biology Corp
Description: (§1) The in vitro kinase inhibition assay was carried out by Reaction Biology Corp. (Reaction Biology Corp., Chester, PA, USA) Kinase HotSpot^SM service (http://www.reactionbiology.com, accessed on 15 January 2021), following the previously reported methods. (For details, see Supplementary Material).
(§2) As mentioned in the introduction, to get insights about the kinase inhibition profile of the hybrid small molecule 5a, an in vitro screening over a panel of 14 cancer-related kinases was carried out. Accordingly, 10 µM concentrations of compound 5a were used in a kinase inhibition assay over various kinase groups and families in the presence of 10 µM ATP using HotSpotSM technology. To get a comprehensive picture of the inhibitory activities of the tested compound (5a) against the kinase panel, data are illustrated in Table 1. […] Compound 5a was also able to suppress the kinase activity of the epidermal growth factor receptor (EGFR), platelet-derived growth factor receptor-alpha (PDGFRα), and cyclin-dependent kinase 2 (CDK2) with modest inhibition values of 26.99 ± 0.9, 24.0 ± 0.4, and 20.1 ± 0.1%, respectively. […] Several studies have confirmed direct relationships between the most affected kinases (FMS, LCK, LYN, and DAPK1) and different human disorders including cancer.
(§3) 5. Protocol of Kinase assay
(§4) Kinases inhibitory activities were assessed by the HotSpot assay platform, which contained specific kinase/substrate pairs along with required cofactors. Base reaction buffer: 20 mM Hepes (pH 7.5), 10 mM MgCl2, 1 mM EGTA, 0.02% Brij35, 0.02 mg/ml BSA, 0.1 mM Na3VO4, 2 mM DTT, 1% DMSO. Testing compounds were dissolved in 100% DMSO to specific concentration. The serial dilution was conducted by Integra Viaflo Assist in DMSO. The reaction mixture containing the examined compound and 33P-ATP was incubated at room temperature for 2h and radioactivity was detected by filter-binding method. Kinase activity data were expressed as the percent remaining kinase activity in test samples compared to vehicle (dimethyl sulfoxide) reactions. IC50 values and curve fits were obtained using Prism (GraphPad Software).
(§5) 6. Biology raw data for IC50 determination
(§6) Paper ID Cpd ID NSC Number

DAPK1 = biological target: T2, DAPK1 (Homo sapiens, UniProt P53355); assay: as above; type: biochemical; settings: single dose of 10 µM; read-out: Percent Inhibition, DAPK1
T2 construct: purchased Reaction Biology Corp
Description: as §1, §2, §3, §4, §5, §6

LCK = biological target: T3, LCK (Homo sapiens, UniProt P06239); assay: as above; type: biochemical; settings: single dose of 10 µM; 10 µM ATP as printed; read-out: Percent Inhibition, LCK
T3 construct: purchased Reaction Biology Corp
Description: as §1, §2, §3, §4, §5, §6

RPMI-8226 = assay: NCI growth inhibition (SRB) assay; type: cell-based; settings: Homo sapiens, RPMI-8226, Leukemia, single dose 10 µM, 48 h, read-out: Percent Growth Inhibition (GI)
Description: (§7) The antitumor assay was performed according to the protocol of the Drug Evaluation Branch, NCI, Bethesda. A 48 h drug exposure protocol was adopted, and sulforhodamine B (SRB) assay was utilized to assess the cell growth and viability, as reported earlier.
(§8) The inhibition results of tumor cell growth by the newly synthesized compounds (5a–5g) are described in Table 4. The reported measurements have been performed at the NIH National Cancer Institute, USA by a standardized assay including a panel of 60 different tumor cell lines (Supplementary Data). The following cancer cell types were included in these assays: Leukemia, non-small cell lung cancer, colon cancer, CNS cancer, melanoma, ovarian cancer, renal cancer, prostate, and breast cancer. […] Additionally, the 3,4-dimethoxy substituted compound (5b) also suffered poor activity against the cancer cell lines.

NCI-H522 = assay: NCI growth inhibition (SRB) assay; type: cell-based; settings: Homo sapiens, NCI-H522, Non-Small Cell Lung Cancer, single dose 10 µM, 48 h, read-out: Percent Growth Inhibition (GI)
Description: as §7, §8

CCRF-CEM = assay: NCI growth inhibition (SRB) assay; type: cell-based; settings: Homo sapiens, Leukemia, single dose 10 µM, 48 h, read-out: Percent Growth Inhibition (GI)
Description: as §7, §8

HT29 = assay: NCI growth inhibition (SRB) assay; type: cell-based; settings: Homo sapiens, HT-29, HT29, Colon Cancer, single dose 10 µM, 48 h, read-out: Percent Growth Inhibition (GI)
Description: as §7, §8

HCT-15 = assay: NCI growth inhibition (SRB) assay; type: cell-based; settings: Homo sapiens, HCT-15, Colon Cancer, single dose 10 µM, 48 h, read-out: Percent Growth Inhibition (GI)
Description: as §7, §8

PC-3 = assay: NCI growth inhibition (SRB) assay; type: cell-based; settings: Homo sapiens, PC-3, Prostate Cancer, single dose 10 µM, 48 h, read-out: Percent Growth Inhibition (GI)
Description: as §7, §8

RXF 393 = assay: NCI growth inhibition (SRB) assay; type: cell-based; settings: Homo sapiens, RXF 393, Renal Cancer, single dose 10 µM, 48 h, read-out: Percent Growth Inhibition (GI)
Description: as §7, §8

UACC-62 = assay: NCI growth inhibition (SRB) assay; type: cell-based; settings: Homo sapiens, UACC-62, Melanoma, single dose 10 µM, 48 h, read-out: Percent Growth Inhibition (GI)
Description: as §7, §8

CAKI-1 = assay: NCI growth inhibition (SRB) assay; type: cell-based; settings: Homo sapiens, CAKI-1, Renal Cancer, single dose 10 µM, 48 h, read-out: Percent Growth Inhibition (GI)
Description: as §7, §8

UO-31 = assay: NCI growth inhibition (SRB) assay; type: cell-based; settings: Homo sapiens, UO-31, Renal Cancer, single dose 10 µM, 48 h, read-out: Percent Growth Inhibition (GI)
Description: as §7, §8

SF-539 = assay: NCI growth inhibition (SRB) assay; type: cell-based; settings: Homo sapiens, SF-539, CNS Cancer, single dose 10 µM, 48 h, read-out: Percent Growth Inhibition (GI)
Description: as §7, §8

COLO 205 = assay: NCI growth inhibition (SRB) assay; type: cell-based; settings: Homo sapiens, COLO 205, Colon Cancer, single dose 10 µM, 48 h, read-out: Percent Growth Inhibition (GI)
Description: as §7, §8

A498 = assay: NCI growth inhibition (SRB) assay; type: cell-based; settings: Homo sapiens, A498, Renal Cancer, single dose 10 µM, 48 h, read-out: Percent Growth Inhibition (GI)
Description: as §7, §8

MCF7 = assay: NCI growth inhibition (SRB) assay; type: cell-based; settings: Homo sapiens, MCF7, Breast Cancer, single dose 10 µM, 48 h, read-out: Percent Growth Inhibition (GI)
Description: as §7, §8

SNB-75 = assay: NCI growth inhibition (SRB) assay; type: cell-based; settings: Homo sapiens, SNB-75, CNS Cancer, single dose 10 µM, 48 h, read-out: Percent Growth Inhibition (GI)
Description: as §7, §8

HOP-92 = assay: NCI growth inhibition (SRB) assay; type: cell-based; settings: Homo sapiens, HOP-92, Non-Small Cell Lung Cancer, single dose 10 µM, 48 h, read-out: Percent Growth Inhibition (GI)
Description: as §7, §8

T1 sequence (P07948 whole entry): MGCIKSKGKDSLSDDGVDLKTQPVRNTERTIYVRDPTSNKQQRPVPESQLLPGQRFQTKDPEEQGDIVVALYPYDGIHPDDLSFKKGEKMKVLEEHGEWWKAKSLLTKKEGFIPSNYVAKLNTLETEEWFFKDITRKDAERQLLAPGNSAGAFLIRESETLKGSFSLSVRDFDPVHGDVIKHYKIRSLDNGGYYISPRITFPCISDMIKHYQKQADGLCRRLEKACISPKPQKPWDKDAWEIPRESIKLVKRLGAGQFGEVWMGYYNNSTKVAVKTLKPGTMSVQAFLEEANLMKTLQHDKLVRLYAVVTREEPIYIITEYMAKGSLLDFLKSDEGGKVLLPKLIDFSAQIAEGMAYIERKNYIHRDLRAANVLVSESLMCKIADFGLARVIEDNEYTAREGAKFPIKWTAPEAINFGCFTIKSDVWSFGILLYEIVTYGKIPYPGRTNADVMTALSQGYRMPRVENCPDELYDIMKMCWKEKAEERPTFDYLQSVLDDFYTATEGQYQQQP
T3 sequence (P06239 whole entry): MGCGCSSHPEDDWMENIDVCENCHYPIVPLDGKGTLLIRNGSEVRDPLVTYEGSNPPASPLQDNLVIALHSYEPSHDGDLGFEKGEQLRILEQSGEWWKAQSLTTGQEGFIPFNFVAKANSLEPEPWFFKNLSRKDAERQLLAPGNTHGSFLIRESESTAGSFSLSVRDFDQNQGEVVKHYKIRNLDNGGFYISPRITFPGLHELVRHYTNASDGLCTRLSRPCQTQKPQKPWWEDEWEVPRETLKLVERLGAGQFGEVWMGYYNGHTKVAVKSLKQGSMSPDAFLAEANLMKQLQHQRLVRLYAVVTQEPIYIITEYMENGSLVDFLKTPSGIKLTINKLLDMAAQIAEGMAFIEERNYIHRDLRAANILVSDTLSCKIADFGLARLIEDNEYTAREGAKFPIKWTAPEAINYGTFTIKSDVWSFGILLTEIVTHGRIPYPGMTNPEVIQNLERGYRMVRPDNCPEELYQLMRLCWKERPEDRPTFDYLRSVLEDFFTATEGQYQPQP
T2 sequence (P53355 whole entry): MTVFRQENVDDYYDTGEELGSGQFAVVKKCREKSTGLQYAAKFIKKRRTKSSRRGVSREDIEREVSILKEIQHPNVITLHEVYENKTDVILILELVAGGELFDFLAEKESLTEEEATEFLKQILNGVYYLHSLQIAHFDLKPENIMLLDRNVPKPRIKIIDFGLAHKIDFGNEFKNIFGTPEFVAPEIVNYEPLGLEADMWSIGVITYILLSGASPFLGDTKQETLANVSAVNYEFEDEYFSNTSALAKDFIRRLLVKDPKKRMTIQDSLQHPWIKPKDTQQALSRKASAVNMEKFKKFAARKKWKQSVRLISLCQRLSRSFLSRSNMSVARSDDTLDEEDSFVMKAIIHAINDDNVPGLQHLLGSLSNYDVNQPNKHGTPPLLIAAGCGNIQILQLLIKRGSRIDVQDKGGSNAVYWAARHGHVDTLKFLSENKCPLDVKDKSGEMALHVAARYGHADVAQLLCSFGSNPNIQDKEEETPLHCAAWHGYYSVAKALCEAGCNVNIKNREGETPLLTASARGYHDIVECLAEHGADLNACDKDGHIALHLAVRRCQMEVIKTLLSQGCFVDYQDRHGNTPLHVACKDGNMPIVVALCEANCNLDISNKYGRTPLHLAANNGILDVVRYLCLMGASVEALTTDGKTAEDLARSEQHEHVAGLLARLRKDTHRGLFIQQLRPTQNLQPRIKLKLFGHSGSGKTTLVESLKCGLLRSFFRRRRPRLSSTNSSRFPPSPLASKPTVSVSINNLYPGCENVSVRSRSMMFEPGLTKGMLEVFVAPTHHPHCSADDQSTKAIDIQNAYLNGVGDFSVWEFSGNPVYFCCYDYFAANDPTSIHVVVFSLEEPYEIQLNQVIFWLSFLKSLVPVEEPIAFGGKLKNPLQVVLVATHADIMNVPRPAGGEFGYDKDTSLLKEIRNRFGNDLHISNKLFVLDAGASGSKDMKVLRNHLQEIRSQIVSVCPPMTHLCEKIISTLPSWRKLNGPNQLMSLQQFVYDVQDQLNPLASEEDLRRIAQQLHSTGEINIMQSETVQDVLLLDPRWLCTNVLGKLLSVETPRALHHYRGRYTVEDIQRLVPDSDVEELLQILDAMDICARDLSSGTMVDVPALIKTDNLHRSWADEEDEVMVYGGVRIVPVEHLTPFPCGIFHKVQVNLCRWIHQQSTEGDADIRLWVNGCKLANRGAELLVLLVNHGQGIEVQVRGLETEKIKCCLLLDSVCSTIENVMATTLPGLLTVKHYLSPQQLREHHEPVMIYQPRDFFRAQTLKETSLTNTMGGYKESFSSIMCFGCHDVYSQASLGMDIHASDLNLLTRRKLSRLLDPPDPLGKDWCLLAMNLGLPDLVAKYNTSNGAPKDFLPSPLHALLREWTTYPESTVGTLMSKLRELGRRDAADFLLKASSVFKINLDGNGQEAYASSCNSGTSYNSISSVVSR

Q: Which results are given for COc1ccc(Oc2nc(Nc3ccc(N4CCOCC4)cc3)ncc2NC(=O)c2ccc3c(c2)OCO3)cc1 [5a, N-(4-(4-Methoxyphenoxy)-2-((4-morpholinophenyl)amino)pyrimidin-5-yl)benzo[d][1,3]dioxole-5-carboxamide]?
A: inhibition at 10 µM (LYN): 75.2%; inhibition at 10 µM (DAPK1): 55 ± 1.1%; inhibition at 10 µM (LCK): 81.4 ± 0.6%; inhibition at 10 µM (RPMI-8226): 21.8%; inhibition at 10 µM (NCI-H522): 22.7%; inhibition at 10 µM (CCRF-CEM): 14.5%; inhibition at 10 µM (HT29): 28.3%; inhibition at 10 µM (HCT-15): 26%; inhibition at 10 µM (PC-3): 11.7%; inhibition at 10 µM (RXF 393): 50.5%; inhibition at 10 µM (UACC-62): 7.38%; inhibition at 10 µM (CAKI-1): 33.9%; inhibition at 10 µM (UO-31): 36.7%; inhibition at 10 µM (SF-539): 4.73%; inhibition at 10 µM (COLO 205): 1.75%; inhibition at 10 µM (A498): 22.4%; inhibition at 10 µM (MCF7): 8.51%; inhibition at 10 µM (SNB-75): -3.98%; inhibition at 10 µM (HOP-92): 6.16%

Q: Which results are given for COc1ccc(Oc2nc(Nc3ccc(N4CCOCC4)cc3)ncc2NC(=O)c2ccc(OC)c(OC)c2)cc1 [5b, 3,4-Dimethoxy-N-(4-(4-methoxyphenoxy)-2-((4-morpholinophenyl)amino)pyrimidin-5-yl)benzamide]?
A: inhibition at 10 µM (LYN): 36.9 ± 4.5%; inhibition at 10 µM (DAPK1): 65 ± 1.2%; inhibition at 10 µM (LCK): 62.3 ± 0.8%; inhibition at 10 µM (RPMI-8226): 11.1%; inhibition at 10 µM (NCI-H522): -3.5%; inhibition at 10 µM (CCRF-CEM): 5.37%; inhibition at 10 µM (HT29): -2.93%; inhibition at 10 µM (HCT-15): 12.3%; inhibition at 10 µM (PC-3): 0.75%; inhibition at 10 µM (RXF 393): 20.4%; inhibition at 10 µM (UACC-62): 0.1%; inhibition at 10 µM (CAKI-1): 20.6%; inhibition at 10 µM (UO-31): 33.6%; inhibition at 10 µM (SF-539): -3.17%; inhibition at 10 µM (COLO 205): -2.21%; inhibition at 10 µM (A498): -5.56%; inhibition at 10 µM (MCF7): 4.24%; inhibition at 10 µM (SNB-75): -4.29%; inhibition at 10 µM (HOP-92): -1.19%

Q: For COc1ccc(Oc2nc(Nc3ccc(N4CCOCC4)cc3)ncc2NC(=O)c2cc(OC)c(OC)c(OC)c2)cc1 [5c, 3,4,5-Trimethoxy-N-(4-(4-methoxyphenoxy)-2-((4-morpholinophenyl)amino)pyrimidin-5-yl)benzamide], which inhibition at 10 µM (LYN) is on record?
A: -1.6 ± 0.3%

Q: And the inhibition at 10 µM (DAPK1)?
A: 50 ± 0.1%

Q: What about the inhibition at 10 µM (LCK) of the same compound?
A: 19.4 ± 0.9%

Q: What about the inhibition at 10 µM (RPMI-8226) of the same compound?
A: 18.8%

Q: What about the inhibition at 10 µM (NCI-H522) of the same compound?
A: 2.25%

Q: And the inhibition at 10 µM (CCRF-CEM)?
A: 30.5%

Q: And the inhibition at 10 µM (HT29)?
A: 47.4%

Q: What about the inhibition at 10 µM (HCT-15) of the same compound?
A: 34.4%

Q: And the inhibition at 10 µM (PC-3)?
A: 11.6%

Q: And the inhibition at 10 µM (RXF 393)?
A: 50.6%

Q: And the inhibition at 10 µM (UACC-62)?
A: -0.63%

Q: And the inhibition at 10 µM (CAKI-1)?
A: 28.1%

Q: What about the inhibition at 10 µM (UO-31) of the same compound?
A: 42.3%

Q: What about the inhibition at 10 µM (SF-539) of the same compound?
A: 7.64%

Q: What about the inhibition at 10 µM (COLO 205) of the same compound?
A: 21.6%

Q: What about the inhibition at 10 µM (A498) of the same compound?
A: 38.3%

Q: What about the inhibition at 10 µM (MCF7) of the same compound?
A: 7.94%

Q: What about the inhibition at 10 µM (SNB-75) of the same compound?
A: 3.59%

Q: What about the inhibition at 10 µM (HOP-92) of the same compound?
A: 15.8%
